{"source": "patent US20260076974A1", "about": "“COMPOSITIONS FOR PREVENTING AND TREATING INFECTION COMPRISING AN ARTIFICIAL SWEETENER” (Brunel University London, priority 2022, published 2026)", "key": {"[1]": {"test_system": "P. aeruginosa colony biofilms"}, "E. coli NCTC 13476": {"test_system": "E. coli NCTC 13476", "settings": "live cell imaging over time", "text": "(§1) To visualise the localisation of these membrane bulges and to gain insight into the contents of the bulges, an E. coli MG1655 strain with labelled mCherry-Fis and CFP-FtsZ was used (FIG. 62CD). Fis is a small DNA-binding protein that binds to a large number of regions of the chromosome, allowing the visualisation of the […] in living cells. FtsZ is a component of the Z ring, showing future cell division sites."}, "A. baumannii cells": {"test_system": "A. baumannii cells", "settings": "live cell imaging over time", "text": "as §1"}, "A. baumannii [2]": {"test_system": "A. baumannii", "test": "Crystal violet biofilm formation assay / minimum biofilm inhibition concentration", "assay_type": "cell-based, Acinetobacter baumannii", "description": "(§2) Biofilm formation is linked to 80% of hospital-associated infections and is a major factor in the routine failure of antibiotic therapy.\n(§3) All samples were exposed to the artificial sweeteners in LB medium for 19 hours before crystal violet biofilm assay was performed. […] The data present the mean of three biological replicates±SD. *p≤0.05, *p≤0.001 versus the bacterial growth in control samples.\n(§4) All samples were exposed to artificial sweeteners for 19 hours before crystal violet biofilm assay was performed."}, "A. baumannii AB5075 [3]": {"test_system": "A. baumannii AB5075", "settings": "established 18 hour biofilm, 8.85% ace-K, 24 hours", "description": "(§5) Plates were incubated for 18 hours at 37° C. and 180 rpm to allow biofilms to form. Following incubation, growth medium was removed from the wells and biofilms were washed three times with 200 μL of sterile PBS to remove any unbound planktonic cells. […] Plates were incubated for a further 24 hours at 37° C. and 180 rpm. Following this treatment biofilms were stained with 0.1% crystal violet as detailed above. Reduction in biofilm was represented as a percentage reduction compared to the control.\n(§6) To assess the ability of artificial sweeteners to disperse biofilms, overnight cultures were diluted in 96-well plates to OD600 0.5-0.1 in growth medium. Plates were incubated for 18 h at 37° C. and 180 rpm to allow biofilms to form. Following incubation growth medium was removed and wells washed three times with 200 μl of sterile PBS to remove any unattached cells. Fresh growth medium supplemented with artificial sweetener or an appropriate vehicle control was added to the wells. Plates were incubated for a further 24 h at 37° C. and 180 rpm. Following this treatment biofilms were stained with 0.1% crystal violet as detailed above. Biofilm dispersal was represented as a percentage reduction compared with the control."}, "P. aeruginosa PA14 [4]": {"test_system": "P. aeruginosa PA14", "settings": "established 18 hour biofilm, 8.85% ace-K, 24 hours", "description": "as §5, §6"}, "A. baumannii AB5075 [5]": {"test_system": "A. baumannii AB5075"}, "P. aeruginosa PA14 [6]": {"test_system": "P. aeruginosa PA14", "test": "Crystal violet biofilm formation assay / minimum biofilm inhibition concentration", "assay_type": "cell-based, Pseudomonas aeruginosa", "description": "as §2, §3, §4"}, "PpilA promoter": {"test_system": "PpilA promoter", "settings": "0, […], 0.66% or […] ace-K, 2 h", "protocol": "The expression from the PpilA promoter was measured using a miniTn7T-based insertion bearing a PpilA::gfp transcriptional fusion (AB5075/miniTn7T-zeo-pilA::gfpmut3). An AB5075/miniTn7T-zeo-gfpmut3 strain, bearing the empty miniTn7T backbone, was used as a control. […] Cultures were incubated for 2 h at 37° C., 180 rpm. Then, samples were withdrawn from the cultures, washed with PBS and eventually resuspended in PBS. Two technical repeats of each sample were allocated in a 96-well plate and their OD600 and GFP fluorescence (485 nm excitation, 535 nm emission) were measured. The fluorescence readings were normalised by their respective OD600 and the baseline fluorescence obtained from the empty transposon control was subtracted from that obtained with the strain bearing the PpilA::gfpmut3 the promoter fusion measurements."}, "A. baumannii [7]": {"test_system": "A. baumannii", "text": "Motility is a central facet of bacterial virulence and facilitates bacterial dissemination to the blood stream or other sites within an infected host. […] To validate the gene expression data, we performed twitching assays at a range of different concentrations."}, "Enterococcus faecalis": {"test_system": "Enterococcus faecalis", "settings": "[…] ace-K versus LB control"}, "A. baumannii AB5075 [8]": {"test_system": "A. baumannii AB5075", "test": "Growth inhibition assay in LB medium (OD600)", "assay_type": "cell-based, Acinetobacter baumannii"}, "Staphylococcus aureus": {"test_system": "Staphylococcus aureus", "settings": "[…] ace-K versus LB control"}, "A. baumannii AB5075 [9]": {"test_system": "A. baumannii AB5075", "settings": "[…] ace-K (sub-MIC), two hours, compared to untreated control", "protocol": "Cultures were incubated at 37° C. and 180 rpm shaking for two hours. Following incubation 10 μL of a 1 mg/mL DAPI solution and 10 μL of a 5 mg/mL solution of Nile Red were added to each flask before returning to the incubator for 30 mins. Once stained, cultures were centrifuged at 5000 rpm for five minutes and the supernatant discarded. Pellets were resuspended in 10 ml of sterile 4% formaldehyde in PBS and incubated in the dark for 30 mins to fix. Once fixed, samples were centrifuged at 5000 rpm and pellets were washed twice with 10 mL sterile PBS. After washing pellets were resuspended in 10 ml of sterile PBS and 10 μL of the cell suspension was spotted onto a glass slide and allowed to air dry in the dark. Three spots were prepared per flask."}, "[10]": {"test_system": "Stenotrophomonas maltophilia"}, "P. aeruginosa PA14 [11]": {"test_system": "P. aeruginosa PA14", "test": "Growth inhibition assay in nutrient medium (OD600)", "assay_type": "cell-based, Pseudomonas aeruginosa"}, "[12]": {"test_system": "A. baumannii gene expression", "settings": "|logFC|>1 and p<.05", "description": "Cells were spun down and washed in RNAlater to preserve mRNA. RNA was isolated using a Qiagen RNAeasy Kit with column DNAase digestion. RNA integrity was determined using a Bioanalyzer. Samples were further processed for RNA sequencing on an Illumina MiSeq with 12 million reads per sample. Quality control and adapter trimming was performed with bcl2fastq."}, "[13]": {"test_system": "A. baumannii colony biofilms"}, "A. baumannii AB5075 [14]": {"test_system": "A. baumannii AB5075", "design": "species or system Acinetobacter baumannii", "settings": "ace-K dressing applied for 1 hour", "description": "In this model, porcine skin was either burnt or lacerated and the wound infected with A. baumannii AB5075 and left for 3.5 hours to allow a biofilm to form. The dressing was applied for 1 hour and viable cells were collected after treatment. […] Samples were tested in biological triplicate with technical quadruplets.\n(8% (w/w)), potassium tetraborate (3% (w/w)), and PVA (3% ((w/w)) were added into a beaker and mixed with deionized water. The mixture was placed in a water bath and heated at 80° C. for three hours with watch glass while being swirled with a stirring rod every 1 hour. Once hydrogels had been obtained, they were placed in a petri dish with custom-made moulds."}, "[15]": {"settings": "submerged in 8.85% (w/v) ace-K solution for 1 hour"}, "[16]": {"settings": "surgical gauze soaked in 8.85% ace-K, 1 hour, compared to water-soaked dressing"}, "[17]": {"settings": "3% (w/v) sucralose, […] (w/v) ace-K, LB medium, 19 hours"}, "[18]": {"settings": "in the presence of divalent cations (CaCl2 2 mM and MgSO4 1 mM)"}, "[19]": {"settings": "LB with ace-K plus Mg2+ and Ca2+"}, "[20]": {"settings": "LB with sweetener plus Mg2+ and Ca2+"}}, "note": "Like-named read-outs stand apart in the source and are kept apart here."}
{"compound": "CC1=CC(=O)[N-]S(=O)(=O)O1.[K+]", "note": "[ace-K, potassium salt of 6-methyl-1,2,3-oxathiazine-4 (3H)-one 2,2-dioxide]", "values": [{"measurement": "number of viable bacteria within the biofilm after ace-K wash", "setting": "[1]; [15]", "result": "significant reduction"}, {"measurement": "bacteria numbers after ace-K augmented dressing", "setting": "[1]; [16]", "result": "significant reductions"}, {"measurement": "cell morphology upon ace-K exposure", "setting": "E. coli NCTC 13476", "result": "filamented, extending to many times their original size before eventually, forming characteristic membrane bulges and ultimately lysing"}, {"measurement": "cell morphology upon ace-K exposure", "setting": "A. baumannii cells", "result": "stop dividing and lose structural integrity, swelling in size rapidly"}, {"measurement": "concentration with significant impact on / inhibition of biofilm formation", "setting": "A. baumannii [2]", "result": 0.09, "unit": "%"}, {"measurement": "biofilm formation", "setting": "A. baumannii [2]; [17]", "result": "significantly inhibit biofilm formation"}, {"measurement": "reduction of total biofilm biomass compared to the control", "setting": "A. baumannii AB5075 [3]", "result": 48.8, "unit": "%"}, {"measurement": "reduction of total biofilm biomass compared to the control", "setting": "P. aeruginosa PA14 [4]", "result": 69.7, "unit": "%"}, {"measurement": "cell viability", "setting": "A. baumannii AB5075 [5]; in the presence of cations when supplementing with ace-K", "result": "not affected"}, {"measurement": "concentration reaching transformation abolition", "setting": "A. baumannii AB5075 [5]; [18]", "result": "≥ 0.66", "unit": "%"}, {"measurement": "concentration with significant drop in transformability", "setting": "A. baumannii AB5075 [5]; [18]", "result": 0.33, "unit": "%"}, {"measurement": "concentration at which transformation is completely abolished", "setting": "A. baumannii AB5075 [5]; without added cations", "result": "≥ 0.66", "unit": "%"}, {"measurement": "biofilm formation", "setting": "P. aeruginosa PA14 [6]; [17]", "result": "significantly inhibit biofilm formation"}, {"measurement": "concentration resulting in almost complete abolition of biofilm formation", "setting": "P. aeruginosa PA14 [6]; 19 hours exposure", "result": 1.77, "unit": "%"}, {"measurement": "effect of Mg2+ and Ca2+ cation supplementation on the growth inhibitory effect", "setting": "E. coli; [19]", "result": "at least partially reverse"}, {"measurement": "growth in LB including ace-K", "setting": "E. coli; […] ace-K versus LB control", "result": "significantly inhibits the growth"}, {"measurement": "pilA expression (GFP fluorescence normalised by OD600)", "setting": "PpilA promoter", "result": "clear dose dependent response"}, {"measurement": "concentration with significant reduction in bacterial twitching motility", "setting": "A. baumannii [7]", "result": "≥ 0.33", "unit": "%"}, {"measurement": "twitching motility over increasing concentrations", "setting": "A. baumannii [7]; AB5075, ace-K", "result": "dose-dependent decrease"}, {"measurement": "twitching motility over increasing concentrations", "setting": "A. baumannii [7]; strains AB0057 and BAA 747, ace-K", "result": "dose-dependent decrease"}, {"measurement": "growth in LB including ace-K", "setting": "Enterococcus faecalis", "result": "significantly inhibits the growth"}, {"measurement": "concentration showing significant / effective growth inhibition", "setting": "A. baumannii AB5075 [8]", "result": "≥ 0.89", "unit": "%"}, {"measurement": "effect of Mg2+ and Ca2+ cation supplementation on the growth inhibitory effect", "setting": "A. baumannii AB5075 [8]; [20]", "result": "at least partially reverse"}, {"measurement": "bacterial growth in the presence of sweetener", "setting": "A. baumannii AB5075 [8]; […] sweetener, 19 hours, LB medium", "result": "inhibit the growth"}, {"measurement": "concentration at which growth inhibition plateaus; no growth above", "setting": "A. baumannii AB5075 [8]; ace-K 0.09-7.08%", "result": "around 5%"}, {"measurement": "effect of Mg2+ and Ca2+ cation supplementation on the growth inhibitory effect", "setting": "Klebsiella pneumoniae; [19]", "result": "at least partially reverse"}, {"measurement": "growth in LB including ace-K", "setting": "Klebsiella pneumoniae; […] ace-K versus LB control", "result": "significantly inhibits the growth"}, {"measurement": "growth in LB including ace-K", "setting": "Staphylococcus aureus", "result": "minor reduction in growth in the presence of ace-K, but this was not significant"}, {"measurement": "nuclear dye uptake", "setting": "A. baumannii AB5075 [9]", "result": "significant increases"}, {"measurement": "effect of Mg2+ and Ca2+ cation supplementation on the growth inhibitory effect", "setting": "[10]; [19]", "result": "at least partially reverse"}, {"measurement": "growth in LB including ace-K", "setting": "[10]; […] ace-K versus LB control", "result": "significantly inhibits the growth"}, {"measurement": "concentration showing significant / effective growth inhibition", "setting": "P. aeruginosa PA14 [11]", "result": "≥ 0.89", "unit": "%"}, {"measurement": "effect of Mg2+ and Ca2+ cation supplementation on the growth inhibitory effect", "setting": "P. aeruginosa PA14 [11]; [20]", "result": "at least partially reverse"}, {"measurement": "bacterial growth in the presence of sweetener", "setting": "P. aeruginosa PA14 [11]; […] sweetener, 19 hours, 37° C.", "result": "inhibit the growth"}, {"measurement": "concentration at which growth inhibition plateaus; no growth above", "setting": "P. aeruginosa PA14 [11]; ace-K 0.09-7.08%", "result": "around 5%"}, {"measurement": "number of genes significantly differentially expressed", "setting": "[12]", "result": 464, "unit": "genes"}, {"measurement": "number of viable bacteria within the biofilm after ace-K wash", "setting": "[13]; [15]", "result": "significant reduction"}, {"measurement": "bacteria numbers after ace-K augmented dressing", "setting": "[13]; [16]", "result": "significant reductions"}, {"measurement": "effect of Mg2+ and Ca2+ cation supplementation on the growth inhibitory effect", "setting": "Enterobacter cloacae; [19]", "result": "at least partially reverse"}, {"measurement": "growth in LB including ace-K", "setting": "Enterobacter cloacae; […] ace-K versus LB control", "result": "significantly inhibits the growth"}, {"measurement": "log reduction in viable cells versus the water control", "setting": "A. baumannii AB5075 [14]; burn model", "result": 2.16, "unit": "log"}, {"measurement": "log reduction in viable cells versus the water control", "setting": "A. baumannii AB5075 [14]; laceration model", "result": 0.5, "unit": "log"}]}
